Test results as given in US20130165446A1 (priority 2010, published 2013).

What follows are compounds tested against T1, human recombinant (CHO cell) AT1 receptor (Homo sapiens, UniProt P30556) (assay: Angiotensin II inhibition test (radioligand binding to AT1 receptor)). Conditions: test compound concentration 10^−9 M; radioactive iodine-labeled angiotensin II, 37° C., sixty minutes.
T1 construct: expressed in transfected cells; host or cells: CHO cells
T1 sequence (P30556 1-359): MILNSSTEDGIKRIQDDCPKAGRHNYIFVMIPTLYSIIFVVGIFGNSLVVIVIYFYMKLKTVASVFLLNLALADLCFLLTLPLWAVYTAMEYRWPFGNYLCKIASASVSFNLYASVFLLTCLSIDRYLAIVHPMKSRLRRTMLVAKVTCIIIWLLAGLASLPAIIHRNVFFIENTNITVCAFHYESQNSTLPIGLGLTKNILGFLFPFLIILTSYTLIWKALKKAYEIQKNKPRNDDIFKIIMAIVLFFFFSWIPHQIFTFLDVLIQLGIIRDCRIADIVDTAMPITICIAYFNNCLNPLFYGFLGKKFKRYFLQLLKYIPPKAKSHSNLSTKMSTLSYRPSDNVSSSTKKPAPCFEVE
Protocol: A test of inhibition of angiotensin II to human recombinant (CHO cell) AT1 receptor following a method described in the literature (for example, Regul. Pept., vol. 44 (2), page 131 (1993)) was used to measure inhibitory activity to a test compound.
The ligand used was 10^−9 M of a test compound dissolved in 1% DMSO (dimethylsulfoxide). This was reacted with radioactive iodine-labeled angiotensin II at 37° C. for sixty minutes. Taking the inhibition rate of angiotensin II at 10 μM as nonspecific binding, the specific binding rate was calculated by subtracting this nonspecific portion. Table 6 indicates the results (the inhibition rate at test compound concentration: 10^−9 M)

Row | Structure (SMILES) | Inhibition rate (%)
1 | CCCc1nc(CSc2ccc(Oc3ccc4nc(COc5ccc(CC6SC(=O)NC6=O)cc5)n(C)c4c3)cc2)c(C(=O)NC)n1Cc1ccc(-c2ccccc2-c2nnn[nH]2)cc1 (centres unmarked) [Example 27, N-methyl-(4-[4-{2-[4-(2,4-dioxothiazolidyn-5-ylmethyl)phenoxymethyl]-1-methyl-1H-benzimidazol-6-yloxy}phenylthiomethyl]-2-propyl-1-[2′-(1H-tetrazol-5-yl)biphenyl-4-ylmethyl]-1H-imidazole)-5-carboxamide] | 66
2 | CCCc1nc(CSCCNC(=O)CSc2ccc3nc(COc4ccc(CC5SC(=O)NC5=O)cc4)n(C)c3c2)c(C(=O)OCC)n1Cc1ccc(-c2ccccc2-c2nnn[nH]2)cc1 (centres unmarked) [Example 19] | 65

Same assay, conditions: test compound concentration 10^−9 M; radioactive iodine-labeled angiotensin II, 37° C., sixty minutes; read-out: Inhibition rate (%)

Row | Structure (SMILES) | inhibition at 0.001 µM [%]
3 | CCCc1nc(CSc2ccc(Oc3ccc4nc(COc5ccc(CC6SC(=O)NC6=O)cc5)n(C)c4c3)cc2)c(C(=O)OC)n1Cc1ccc(-c2ccccc2-c2nnn[nH]2)cc1 (centres unmarked) [Example 30, 4-[4-{2-[4-(2,4-dioxothiazolidin-5-ylmethyl)phenoxymethyl]-1-methyl-1H-benzimidazol-6-yloxy}phenylthiomethyl]-2-propyl-1-[2′-(1H-tetrazol-5-yl)biphenyl-4-ylmethyl]-1H-imidazole-5-carboxylic acid methyl ester] | 66
4 | CCCc1nc2c(C)cc(-c3nc4ccc(N(C)CCOc5ccc(CC6SC(=O)NC6=O)cc5)cc4n3C)cc2n1Cc1ccc(-c2ccccc2C(=O)O)cc1 (centres unmarked) [Example 22, 4′-[6-{6-(N-2-[4-(2,4-dioxothiazolidin-5-ylmethyl)phenoxy]ethyl-N-methylamino)-1-methyl-1H-benzimidazol-2-yl}-4-methyl-2-propyl-1H-benzimidazol-1-ylmethyl]biphenyl-2-carboxylic acid] | 60
5 | CCCc1nc(CSc2ccc3nc(COc4ccc(CC(OCc5ccc(Cl)cc5)C(=O)O)cc4)n(C)c3c2)c(C(=O)OCC)n1Cc1ccc(-c2ccccc2-c2nnn[nH]2)cc1 (centres unmarked) [Example 35, 3-[4-[6-(5-ethoxycarbonyl-1-{2′-(1H-tetrazol-5-yl)biphenyl-4-ylmethyl}-2-propyl-1H-imidazol-4-ylmethylthio)-1-methyl-1H-benzimidazol-2-ylmethoxy]phenyl]-2-(4-chlorobenzyloxy)propionic acid] | 90
6 | CCCc1nc2c(C)cc(COc3ccc4nc(COc5ccc(CC6SC(=O)NC6=O)cc5)n(C)c4c3)cc2n1Cc1ccc(-c2ccccc2-c2nnn[nH]2)cc1 (centres unmarked) [Example 1, 5-(4-{6-[4-methyl-2-propyl-1-[2′-(1H-tetrazol-5-yl)biphenyl-4-ylmethyl]-1H-benzimidazol-6-ylmethoxy]-1-methyl-1H-benzimidazol-2-ylmethoxy}benzyl)thiazolidine-2,4-dione] | 51
7 | CCCc1nc(CS(=O)(=O)c2ccc(Oc3ccc4nc(COc5ccc(CC6SC(=O)NC6=O)cc5)n(C)c4c3)cc2)c(C(=O)OCC)n1Cc1ccc(-c2ccccc2-c2nnn[nH]2)cc1 (centres unmarked) [Example 26, 4-[4-{2-[4-(2,4-dioxothiazolidin-5-ylmethyl)phenoxymethyl]-1-methyl-1H-benzimidazol-6-yloxy}phenylsulfonylmethyl]-2-propyl-1-[2′-(1H-tetrazol-5-yl)biphenyl-4-ylmethyl]-1H-imidazole-5-carboxylic acid ethyl ester] | 44
8 | CCCCc1nc(Cl)c(C[S+]([O-])c2ccc3nc(COc4ccc(CC5SC(=O)NC5=O)cc4)n(C)c3c2)n1Cc1ccc(-c2ccccc2-c2nnn[nH]2)cc1 (centres unmarked) [Example 23, 5-(4-{6-[2-butyl-4-chloro-1-[2′-(1H-tetrazol-5-yl)biphenyl-4-ylmethyl]-1H-imidazol-5-ylmethylsulfinyl]-1-methyl-1H-benzimidazol-2-ylmethoxy}benzyl)thiazolidine-2,4-dione] | 22
